ChEMBL document CHEMBL3046085, “Synthesis, characterization and in vitro cytotoxic properties of some new Schiff and Mannich bases in Hep G2 cells” (Med Chem Res, 2011)
In brackets after ≈: the same amount, converted by molar mass.

Tests used:
HepG2 [1] = test: Cytotoxicity against Homo sapiens (human) HepG2 cells after 24 hr by MTT assay; type: functional, cell-based; settings: HepG2, 24 h
HepG2 [2] = test: Cytotoxicity against Homo sapiens (human) HepG2 cells assessed as cell survival at 0.0001 g/l after 24 hr by MTT assay (reference value: 78.07 +/- 1.89 to 95.31 +/- 3.09%); type: functional; settings: HepG2, 24 h, read-out: Survival
HepG2 [3] = test: Cytotoxicity against Homo sapiens (human) HepG2 cells assessed as cell survival at 0.001 g/l after 24 hr by MTT assay (reference value: 78.07 +/- 1.89 to 95.31 +/- 3.09%); type: functional; settings: HepG2, 24 h, read-out: Survival
HepG2 [4] = test: Cytotoxicity against Homo sapiens (human) HepG2 cells assessed as cell survival at 0.01 g/l after 24 hr by MTT assay (reference value: 78.07 +/- 1.89 to 95.31 +/- 3.09%); type: functional; settings: HepG2, 24 h, read-out: Survival
HepG2 [5] = test: Cytotoxicity against Homo sapiens (human) HepG2 cells assessed as cell survival at 0.1 g/l after 24 hr by MTT assay (reference value: 78.07 +/- 1.89 to 95.31 +/- 3.09%); type: functional; settings: HepG2, 24 h, read-out: Survival

| Compound | IC50 (HepG2 [1]) | other results |
| --- | --- | --- |
| Cc1ccc(OCc2nn(CN(c3ccccc3)c3ccccc3)c(=S)n2/N=C/c2c[nH]nc2-c2ccc(Cl)cc2)cc1 | 97 µg/mL (≈ 160 µM) | – |
| Cc1ccc(OCc2n[nH]c(=S)n2/N=C/c2c[nH]nc2-c2ccc(Cl)cc2)cc1 | 28 µg/mL (≈ 65.9 µM) | – |
| Cc1ccccc1OCc1n[nH]c(=S)n1/N=C/c1c[nH]nc1-c1ccc(F)cc1 | 48 µg/mL (≈ 118 µM) | – |
| CCc1n[nH]cc1/C=N/n1c(COc2ccc(C)cc2)n[nH]c1=S | > 100 µg/mL | – |
| Cc1ccc(OCc2nn(CN(c3ccccc3)c3ccccc3)c(=S)n2/N=C/c2c[nH]nc2-c2ccc(F)cc2)cc1 | 90 µg/mL (≈ 153 µM) | – |
| COc1cccc2c1C(=O)c1c(O)c3c(c(O)c1C2=O)C[C@@](O)(C(=O)CO)C[C@@H]3O[C@H]1C[C@H](N)[C@H](O)[C@H](C)O1 [DOXORUBICIN] | 17 µg/mL (≈ 31.3 µM) | viability at 0.1 µg/mL (HepG2 [2]): 90%; viability at 1 µg/mL (HepG2 [3]): 74.2%; viability at 10 µg/mL (HepG2 [4]): 51.2%; viability at 100 µg/mL (HepG2 [5]): 35.9% |
| Cc1ccc(OCc2n[nH]c(=S)n2/N=C/c2c[nH]nc2-c2ccc(F)cc2)cc1 | 45 µg/mL (≈ 110 µM) | – |
| S=c1[nH]nc(COc2ccccc2)n1/N=C/c1c[nH]nc1-c1ccc(Cl)cc1 | 18 µg/mL (≈ 43.8 µM) | – |
| Cc1ccccc1OCc1nn(CN2CCOCC2)c(=S)n1/N=C/c1c[nH]nc1-c1ccc(Cl)cc1 | 54 µg/mL (≈ 103 µM) | – |
| Cc1ccc(OCc2nn(CN3CCOCC3)c(=S)n2/N=C/c2c[nH]nc2-c2ccc(F)cc2)cc1 | 34 µg/mL (≈ 67 µM) | – |
| Fc1ccc(-c2n[nH]cc2/C=N/n2c(COc3ccccc3Cl)n[nH]c2=S)cc1 | 71 µg/mL (≈ 166 µM) | – |
| Fc1ccc(-c2n[nH]cc2/C=N/n2c(COc3ccccc3)n[nH]c2=S)cc1 | 71 µg/mL (≈ 180 µM) | – |
| Cc1ccccc1OCc1n[nH]c(=S)n1/N=C/c1c[nH]nc1-c1ccc(Cl)cc1 | 44 µg/mL (≈ 104 µM) | – |
| Cc1ccc(OCc2nn(CN3CCOCC3)c(=S)n2/N=C/c2c[nH]nc2-c2ccc(Cl)cc2)cc1 | 54 µg/mL (≈ 103 µM) | – |
